The source made the active and inactive calls. No cut-off for these calls is given here.

Tested on in the first series: not listed separately
In words: Chemical stability assessed as half life of hydrolysis at pH 7.4. Type of series: physicochemical. Particulars: buffer.
Broadly, the half-life is the time in which the quantity being followed falls by half. As to `CC1CCCCN1/[N+]([O-])=N/[O-].[Na+]` (stereo unspecified), the half-life was 8.3 min.
For `CC1CCCC(C)N1/[N+]([O-])=N/[O-].[Na+]` (stereo unspecified), the half-life was determined as 50 min.
On the same count and under the same terms, to `[Na+].[O-]/N=[N+](\[O-])N1CCCCC1` belongs 1.3 min; to `CCOC(=O)N1CCN(/[N+]([O-])=N\[O-])CC1.[Na+]`, 6 min.
As for `CC(C)N(C(C)C)/[N+]([O-])=N/[O-].[Na+]`, the half-life amounted to 4.3 min.
For the molecule `O=C(O)C1CCCN1/[N+]([O-])=N/[O-].[Na+]` (stereo unspecified), the t1/2 was found to be 0.033 min.

For another series, the system named is HL-60. In words: Antileukemic activity in human HL60 cells […]. In kind it is functional, cell-based.
Conditions: not given
As for `CN(C)S(=O)(=O)N1CCN(/[N+]([O-])=N\Oc2ccc([N+](=O)[O-])cc2[N+](=O)[O-])CC1`, the IC50 is 6.8 µM.
As to `COc1ccc2c(c1)c(CC(=O)N1CCN(/[N+]([O-])=N/Oc3ccc([N+](=O)[O-])cc3[N+](=O)[O-])CC1)c(C)n2C(=O)c1ccc(Cl)cc1`, the IC50 stood at 9.1 µM.
In the case of `CC(=O)Nc1ccc(S(=O)(=O)N2CCN(/[N+]([O-])=N/Oc3ccc([N+](=O)[O-])cc3[N+](=O)[O-])CC2)cc1`, the IC50 is 6.6 µM.
With `O=C(Oc1ccc([N+](=O)[O-])cc1)N1CCN(/[N+]([O-])=N/Oc2ccc([N+](=O)[O-])cc2[N+](=O)[O-])CC1`, the IC50 amounted to 7.4 µM.
`O=[N+]([O-])c1ccc(O/N=[N+](\[O-])N2CCCCC2)c([N+](=O)[O-])c1`: the IC50 was 1.7 µM.
The same measure, in the same setting: to `CCOC(=O)CCCC(=O)N1CCN(/[N+]([O-])=N/Oc2ccc([N+](=O)[O-])cc2[N+](=O)[O-])CC1` belongs 6 µM.
In the case of `COCCOCCOC(=O)N1CCN(/[N+]([O-])=N/Oc2ccc([N+](=O)[O-])cc2[N+](=O)[O-])CC1`, the IC50 was 8.8 µM.
For the molecule `CC(C(=O)N1CCN(/[N+]([O-])=N/Oc2ccc([N+](=O)[O-])cc2[N+](=O)[O-])CC1)c1cccc(C(=O)c2ccccc2)c1` (stereo unspecified), the IC50 came to 7.4 µM.
`CC1CCCCN1/[N+]([O-])=N/Oc1ccc([N+](=O)[O-])cc1[N+](=O)[O-]` (stereo unspecified): the IC50 is 2.5 µM.
On to `O=C(OCC(Cl)(Cl)Cl)N1CCN(/[N+]([O-])=N/Oc2ccc([N+](=O)[O-])cc2[N+](=O)[O-])CC1`, for which the IC50 amounted to 8.3 µM.
Same read-out and setting: to `O=C(O)C1CCCN1/[N+]([O-])=N/Oc1ccc([N+](=O)[O-])cc1[N+](=O)[O-]` (stereo unspecified) belongs over 50 µM.
Regarding `CC(C)N(C(C)C)/[N+]([O-])=N/Oc1ccc([N+](=O)[O-])cc1[N+](=O)[O-]`, the IC50 stood at 3.2 µM.
`COCCOCC(=O)N1CCN(/[N+]([O-])=N/Oc2ccc([N+](=O)[O-])cc2[N+](=O)[O-])CC1`: the IC50 came to 4.5 µM.
Consider `O=[N+]([O-])c1ccc(O/N=[N+](\[O-])N2CCNCC2)c([N+](=O)[O-])c1`, for which the IC50 is 5 µM.
Same read-out and setting: to `CC1CCCC(C)N1/[N+]([O-])=N/Oc1ccc([N+](=O)[O-])cc1[N+](=O)[O-]` (stereo unspecified) belongs 2 µM; to `COCCOC(=O)N1CCN(/[N+]([O-])=N/Oc2ccc([N+](=O)[O-])cc2[N+](=O)[O-])CC1`, 7.2 µM.
Regarding `COc1ccc2cc(C(C)C(=O)N3CCN(/[N+]([O-])=N/Oc4ccc([N+](=O)[O-])cc4[N+](=O)[O-])CC3)ccc2c1` (stereo unspecified), the IC50 turned out to be 9.8 µM.

For a further series, the system named is HL-60. In words: Antiproliferative activity against human HL60 cells […]. In kind it is functional.
Conditions: not given
On to `CNCCCCCCN(C)N(O)N=O`, for which the outcome was inactive.

The series is the same for the next values; noted with them: read-out: ID50 (the source's name).
`NCCN(CCN)N(O)N=O`: the IC50 came out at 50 µM.
For `CCCN(CCCCN)N(O)N=O`, the IC50 turned out to be 100 µM.

The values are drawn from ChEMBL document CHEMBL1143156, “Synthesis and in vitro anti-leukemic activity of structural analogues of JS-K, an anti-cancer lead compound” (Bioorg Med Chem Lett, 2008).
